By IC50 is commonly meant the concentration at which inhibition is half-maximal. A high value points to weaker potency.

For 28 compounds, IC50 results are on record in patent US10106516B2, “PDE10 inhibitors and related compositions and methods” (Omeros Corporation, priority 2010, dated 2018).

T1 sequence (Q9Y233 1-779 isoform Q9Y233-1): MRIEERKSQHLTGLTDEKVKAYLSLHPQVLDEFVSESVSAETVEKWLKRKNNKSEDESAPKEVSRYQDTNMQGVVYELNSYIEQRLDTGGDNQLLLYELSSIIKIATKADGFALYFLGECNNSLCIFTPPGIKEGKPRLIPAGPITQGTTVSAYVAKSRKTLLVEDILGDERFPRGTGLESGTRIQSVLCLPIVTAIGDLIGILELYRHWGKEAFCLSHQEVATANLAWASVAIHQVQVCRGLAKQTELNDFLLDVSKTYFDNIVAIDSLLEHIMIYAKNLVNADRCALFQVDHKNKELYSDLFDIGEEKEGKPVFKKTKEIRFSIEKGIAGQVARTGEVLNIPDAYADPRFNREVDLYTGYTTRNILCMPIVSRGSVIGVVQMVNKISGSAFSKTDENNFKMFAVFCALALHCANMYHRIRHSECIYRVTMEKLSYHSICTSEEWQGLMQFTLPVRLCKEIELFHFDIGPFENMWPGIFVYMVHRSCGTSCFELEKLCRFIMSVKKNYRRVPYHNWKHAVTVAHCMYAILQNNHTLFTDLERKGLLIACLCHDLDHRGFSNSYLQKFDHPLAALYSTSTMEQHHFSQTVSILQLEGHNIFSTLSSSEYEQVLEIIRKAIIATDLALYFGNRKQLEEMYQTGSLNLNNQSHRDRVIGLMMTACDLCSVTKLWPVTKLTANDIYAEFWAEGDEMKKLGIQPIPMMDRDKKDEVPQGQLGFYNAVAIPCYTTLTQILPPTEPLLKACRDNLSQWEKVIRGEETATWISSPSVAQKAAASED

The assay addresses T1, PDE10 (Homo sapiens, UniProt Q9Y233).
T1 construct: made in house; host or cells: Sf9 insect cells (baculovirus)
Put plainly: PDE10 biochemical assay (two-step Thompson and Appleman method or SPA). Particulars: PDE10 inhibition. The protocol: In short, cAMP is spiked with (^3H)cAMP and incubated with PDE10 and various concentrations of a compound of structure (I). After the appropriate incubation time, the reaction is terminated by heating. The mixture is then subjected to treatment with snake venom phosphatase. The phosphatase hydrolyzes any AMP in the mixture, but leaves unreacted cAMP intact. Thus, by separating cAMP from the mixture and determining its concentration (by radiography), the percent of inhibition can be determined. IC50 values can be calculated by performing the experiment at several concentrations using standard graphical means. A detailed description of the actual technique used for IC50 assays as set forth in following Examples.
The phosphodiesterase (PDE) assay was performed using recombinant human PDE 1A3, 2A3, 3 catalytic region, 4 catalytic region, 5 catalytic region, 7A, 8A, 9A2, 10A1 and 11A1 enzymes expressed in a baculoviral system using Sf9 cells. PDE activity was measured using a modification of the two-step method of Thompson and Appleman described above which was adapted for 96 well plate format. […] The final assay volume was 110 μl with assay buffer (10 mM MgCl2; 40 mM Tris.HCl; pH 7.4). Reactions were initiated with enzyme and incubated with (^3H)-substrate and substance for 20 minutes at 30° C. The reaction was terminated by denaturing the enzyme (heating the reaction to 70° C. for 2 minutes). The reaction was then cooled at 4° C. for 10 minutes before the addition of snake venom (Crotalus atrox, 0.2 mg/ml) for 10 minutes at 30° C., thus allowing non-specific hydrolysis of the tritiated substrate. Separation of the remaining unhydrolysed cyclic nucleotide was achieved by a batch binding of the mixture to activated Dowex (200 μl) anion exchange resin. The anion exchange resin bound the charged nucleotides, leaving only hydrolysed (^3H) substrate in the soluble fraction. The soluble fraction (50 μl) was then added to microscint-20 (200 μl) and counted on a Top Count Plate reader. Radioactivity units were plotted against inhibitor concentration and IC50 values obtained using Graph Pad Prism software.
Alternatively, phosphodiesterase activity was measured by scintillation proximity assay (SPA) with [^3H]-cGMP as substrate. Purified PDE10 was diluted and stored in 25 mM Tris-Cl (pH 8.0)/100 mM NaCl/0.05% Tween 20/50% glycerol/3 mM DTT. Assays contained (final concentrations): 50 mM Tris-Cl (pH 7.5)/8.3 mM MgCl2/1.7 mM EGTA/0.5 mg/ml BSA/5% DMSO and 2 ng PDE10 in a final volume of 0.1 mL. Inhibition was evaluated at 8 concentrations in duplicate. Reactions were initiated by addition of enzyme and were terminated after 20 minutes at 30° C. by the addition of 50 μl of SPA beads containing Zn^++. The mixture was shaken, allowed to settle for 3 hours, and counted in a Wallac plate counter. Results (net cpm) were fitted to a four parameter logistic model using Excel Solver®.
On to `COc1cc(-c2csc(C(=O)C(OC)c3ccc(-n4cccn4)cc3)n2)cc(OC)c1Br` (stereo not shown) [Compound 3-1, 2-(4-(1H-Pyrazol-1-Yl)Phenyl)-1-(4-(4-Bromo-3,5-Dimethoxyphenyl)Thiazol-2-Yl)-2-Methoxyethanone], for which the IC50 is ≤ 1000 nM.

For the compound `COc1cc(-c2cn(C)c(C(=O)C(OC)c3ccc(N4CCOCC4)cc3)n2)cc(OC)c1Br` (stereo not shown) [Compound 4-1, 1-(4-(4-Bromo-3,5-Dimethoxyphenyl)-1-Methyl-1H-Imidazol-2-Yl)-2-Methoxy-2-(4-Morpholinophenyl)Ethanone], the 50% inhibitory concentration (IC50) is ≤ 1000 nM.

Take `COc1cc(-c2coc(C(=O)C(OC)c3ccc(-n4cccn4)cc3)n2)cc(OC)c1Br` (stereo not shown) [Compound 5-1, 2-(4-(1H-Pyrazol-1-Yl)Phenyl)-1-(4-(4-Bromo-3,5-Dimethoxyphenyl)Oxazol-2-Yl)-2-Methoxyethanone]: the IC50 was ≤ 1000 nM.

For `COc1cc(-c2coc(C(=O)C(OC)c3ccc(N4CCCCC4)cc3)n2)cc(OC)c1Br` (stereo not shown) [Compound 6-1, 1-(4-(4-Bromo-3,5-Dimethoxyphenyl)Oxazol-2-Yl)-2-Methoxy-2-(4-(Piperidin-1-Yl)Phenyl)Ethanone], the IC50 was ≤ 1000 nM.

On to `COc1cc(-c2coc(C(=O)C(OC)c3ccc(N4CCCC4)cc3)n2)cc(OC)c1Br` (stereo not shown) [Compound 7-1, 1-(4-(4-Bromo-3,5-Dimethoxyphenyl)Oxazol-2-Yl)-2-Methoxy-2-(4-(Pyrrolidin-1-Yl)Phenyl)Ethanone], for which the IC50 was ≤ 1000 nM.

As for `COc1cc(-c2coc(C(=O)C(OC)c3ccc(OC(C)C)cc3)n2)cc(OC)c1Br` (stereo not shown) [Compound 8-1, 1-(4-(4-Bromo-3,5-Dimethoxyphenyl)Oxazol-2-Yl)-2-(4-Isopropoxyphenyl)-2-Methoxyethanone], the half-inhibitory concentration (IC50) is ≤ 1000 nM.

Take `COc1cc(-c2coc(C(=O)C(OC)c3cccc4ncccc34)n2)cc(OC)c1Br` (stereo not shown) [Compound 9-1, 1-(4-(4-Bromo-3,5-Dimethoxyphenyl)Oxazol-2-Yl)-2-Methoxy-2-(Quinolin-5-Yl)Ethanone]: the IC50 was ≤ 1000 nM.

As to `COc1cc(-c2coc(C(=O)C(OC)c3cnc4ccccc4c3)n2)cc(OC)c1Br` (stereo not shown) [Compound 10-1, 1-(4-(4-Bromo-3,5-Dimethoxyphenyl)Oxazol-2-Yl)-2-Methoxy-2-(Quinolin-3-Yl)Ethanone], the IC50 is ≤ 1000 nM.

As to `COc1cc(-c2ccc(C(=O)C(OC)c3ccc(N4CCOCC4)cc3)o2)cc(OC)c1Br` (stereo not shown) [Compound 12-1, 1-(5-(4-Bromo-3,5-Dimethoxyphenyl)Furan-2-Yl)-2-Methoxy-2-(4-Morpholinophenyl)Ethanone], the IC50 was ≤ 1000 nM.

As for `COc1cc(-c2ccc(C(=O)C(OC)c3ccc(-c4nnc(C)o4)cc3)o2)cc(OC)c1Br` (stereo not shown) [Compound 13-1, 1-(5-(4-Bromo-3,5-Dimethoxyphenyl)Furan-2-Yl)-2-Methoxy-2-(4-(5-Methyl-1,3,4-Oxadiazol-2-Yl)Phenyl)Ethanone], the IC50 is ≤ 1000 nM.

Turning to `COc1cc(-c2ccc(C(=O)C(OC)c3ccc(-n4cccn4)cc3)o2)cc(OC)c1Br` (stereo not shown) [Compound 14-1, 2-(4-(1H-Pyrazol-1-Yl)Phenyl)-1-(5-(4-Bromo-3,5-Dimethoxyphenyl)Furan-2-Yl)-2-Methoxyethanone], the IC50 was ≤ 1000 nM.

As for `COc1cc(-c2ccc(C(=O)C(OC)c3ccc(-c4cn[nH]c4)cc3)o2)cc(OC)c1Br` (stereo not shown) [Compound 15-1, 2-(4-(1H-Pyrazol-4-Yl)Phenyl)-1-(5-(4-Bromo-3,5-Dimethoxyphenyl)Furan-2-Yl)-2-Methoxyethanone], the IC50 was ≤ 1000 nM.

As for `COc1cc(-c2ccc(C(=O)C(OC)c3ccc(-c4ccc(C)o4)cc3)o2)cc(OC)c1Br` (stereo not shown) [Compound 16-1, 1-(5-(4-Bromo-3,5-Dimethoxyphenyl)Furan-2-Yl)-2-Methoxy-2-(4-(5-Methylfuran-2-Yl)Phenyl)Ethanone], the IC50 was ≤ 1000 nM.

`COc1cc(-c2ccc(C(=O)C(OC)c3ccc(-c4nnc(C)o4)cc3)o2)cc(C#N)c1OC` (stereo not shown) [Compound 17-1, 2,3-Dimethoxy-5-(5-(2-Methoxy-2-(4-(5-Methyl-1,3,4-Oxadiazol-2-Yl)Phenyl)Acetyl)Furan-2-Yl)Benzonitrile]: the half-maximal inhibitory concentration (IC50) is ≤ 1000 nM.

Consider `CCc1nnc(-c2ccc(C(OC)C(=O)c3ccc(-c4cc(OC)c(Br)c(OC)c4)o3)cc2)o1` (stereo not shown) [Compound 18-1, 1-(5-(4-Bromo-3,5-Dimethoxyphenyl)Furan-2-Yl)-2-(4-(5-Ethyl-1,3,4-Oxadiazol-2-Yl)Phenyl)-2-Methoxyethanone], for which the IC50 is ≤ 1000 nM.

As to `COc1cc(-c2ccc(C(=O)C(OC)c3ccc(N4CCCS4(=O)=O)cc3)o2)cc(OC)c1Br` (stereo not shown) [Compound 19-1, 1-(5-(4-Bromo-3,5-Dimethoxyphenyl)Furan-2-Yl)-2-(4-(1,1-Dioxidoisothiazolidin-2-Yl)Phenyl)-2-Methoxyethanone], the 50% inhibitory concentration (IC50) was ≤ 1000 nM.

For the compound `COc1cc(-c2ccc(C(=O)C(OC)c3cccc4ncccc34)o2)cc(OC)c1Br` (stereo not shown) [Compound 20-1, 1-(5-(4-Bromo-3,5-Dimethoxyphenyl)Furan-2-Yl)-2-Methoxy-2-(Quinolin-5-Yl)Ethanone], the IC50 was ≤ 1000 nM.

Consider `COc1cc(-c2ccc(C(=O)C(OC)c3ccc(-c4nnc(C)o4)cc3)o2)cc(OC)c1C` (stereo not shown) [Compound 21-1, 1-(5-(3,5-Dimethoxy-4-Methylphenyl)Furan-2-Yl)-2-Methoxy-2-(4-(5-Methyl-1,3,4-Oxadiazol-2-Yl)Phenyl)Ethanone], for which the 50% inhibitory concentration (IC50) is ≤ 1000 nM.

`COc1cc(-c2ccc(C(=O)C(OC)c3ccc(-c4nnc(C5CC5)o4)cc3)o2)cc(OC)c1Br` (stereo not shown) [Compound 22-1, 1-(5-(4-Bromo-3,5-Dimethoxyphenyl)Furan-2-Yl)-2-(4-(5-Cyclopropyl-1,3,4-Oxadiazol-2-Yl)Phenyl)-2-Methoxyethanone]: the IC50 is ≤ 1000 nM.

`COc1cc(-c2ccc(C(=O)C(OC)c3ccc(N4CCCCC4)nc3)o2)cc(OC)c1Br` (stereo not shown) [Compound 23-1, 1-(5-(4-Bromo-3,5-Dimethoxyphenyl)Furan-2-Yl)-2-Methoxy-2-(6-(Piperidin-1-Yl)Pyridin-3-Yl)Ethanone]: the IC50 is ≤ 1000 nM.

On to `COc1cc(-c2ccc(C(=O)C(OC)c3ccc4c(c3)nnn4C)o2)cc(OC)c1Br` (stereo not shown) [Compound 25-1, 1-(5-(4-Bromo-3,5-Dimethoxyphenyl)Furan-2-Yl)-2-Methoxy-2-(1-Methyl-1H-Benzo[D][1,2,3]Triazol-5-Yl)Ethanone], for which the IC50 is ≤ 1000 nM.

As to `COc1cc(-c2ccc(C(=O)C(OC)c3ccc(CN4CCOCC4)cc3)o2)cc(OC)c1Br` (stereo not shown) [Compound 26-1, 1-(5-(4-Bromo-3,5-Dimethoxyphenyl)Furan-2-Yl)-2-Methoxy-2-(4-(Morpholinomethyl)Phenyl)Ethanone], the half-maximal inhibitory concentration (IC50) was ≤ 1000 nM.

Turning to `COc1cc(OC)cc(-c2ccc(C(=O)C(OC)c3ccc(N4CCOCC4)cc3)o2)c1` (stereo not shown) [Compound 27-1, 1-(5-(3,5-Dimethoxyphenyl)Furan-2-Yl)-2-Methoxy-2-(4-Morpholinophenyl)Ethanone], the half-inhibitory concentration (IC50) was ≤ 1000 nM.

Consider `COc1cc(-c2ccc(C(=O)C(OC)c3ccc(N4CCOCC4)cc3)o2)cc(OC)c1OC(F)F` (stereo not shown) [Compound 28-1, 1-(5-(4-(Difluoromethoxy)-3,5-Dimethoxyphenyl)Furan-2-Yl)-2-Methoxy-2-(4-Morpholinophenyl)Ethanone], for which the IC50 was ≤ 1000 nM.

As to `CCOc1c(OC)cc(-c2ccc(C(=O)C(OC)c3ccc(N4CCOCC4)cc3)o2)cc1OC` (stereo not shown) [Compound 29-1, 1-(5-(4-Ethoxy-3,5-Dimethoxyphenyl)Furan-2-Yl)-2-Methoxy-2-(4-Morpholinophenyl)Ethanone], the IC50 was ≤ 1000 nM.

`COc1cc(-c2ccc(C(=O)C(OC)c3ccc(-n4nccn4)cc3)o2)cc(OC)c1Br` (stereo not shown) [Compound 30-1, 2-(4-(2H-1,2,3-Triazol-2-Yl)Phenyl)-1-(5-(4-Bromo-3,5-Dimethoxyphenyl)Furan-2-Yl)-2-Methoxyethanone]: the half-maximal inhibitory concentration (IC50) is ≤ 1000 nM.

Consider `COc1cc(-c2ccc(C(=O)C(OC)c3ccc(-n4ccnn4)cc3)o2)cc(OC)c1Br` (stereo not shown) [Compound 31-1, 2-(4-(1H-1,2,3-Triazol-1-Yl)Phenyl)-1-(5-(4-Bromo-3,5-Dimethoxyphenyl)Furan-2-Yl)-2-Methoxyethanone], for which the IC50 is ≤ 1000 nM.

With `COc1cc(-c2ccc(C(=O)C(OC)c3ccc(-n4cncn4)cc3)o2)cc(OC)c1Br` (stereo not shown) [Compound 32-1, 2-(4-(1H-1,2,4-Triazol-1-Yl)Phenyl)-1-(5-(4-Bromo-3,5-Dimethoxyphenyl)Furan-2-Yl)-2-Methoxyethanone], the IC50 was ≤ 1000 nM.
